Assay results taken from ChEMBL document CHEMBL1124716, “Structure and activity of hydrogenated derivatives of (+)-5-methyl-10,11-dihydro-5H-dibenzo[a,d]cyclohepten-5,10-imine (MK-801)” (J Med Chem, 1990).

What was measured:
[1] = Ability to inhibit [3H]-MK-801 binding to N-methyl-D-aspartate glutamate receptor of rat cortical membranes
[2] = N-methyl-D-aspartate glutamate receptor antagonist activity was determined in rat cortical slice preparation; assay type: functional

Row | SMILES | IC50 [1] [nM] | Kb [2] [nM]
1 | CC12NC(Cc3ccccc31)CC1CCCCC12 (stereo not given) | 164 | 250
2 | CC12N[C@H](CC3=C1CCCC3)c1ccccc12 | 193 | 270
3 | CC12N[C@H](CC3CCCCC31)c1ccccc12 (stereo not given in full) | 188 | 130
4 | CC12N[C@H](Cc3ccccc31)C1=CCCCC12 (stereo not given in full) | 60 | 300
5 | CN1C2(C)c3ccccc3C1(C)C1CCCCC12 (stereo not given) | 111 | 
6 | CC12N[C@H](CC3=C1CCCC3)C1CCCCC12 (stereo not given in full) | 80 | 280
7 | CN1[C@@H]2Cc3ccccc3[C@@]1(C)C1CCCCC12 (stereo not given in full) | 96 | 290
8 | CC12N[C@H](Cc3ccccc31)C1CCCCC12 (stereo not given in full) | 16 | 230
9 | OCCC12N[C@H](Cc3ccccc31)C1CCCCC12 (stereo not given in full) | 220 | 240
10 | COc1ccc2c(c1)C1(C)N[C@@H]2CC2CCCCC21 (stereo not given in full) | 240 | 310
11 | CC12N[C@@H](C3CCCCC31)[C@H](O)c1ccccc12 (stereo not given in full) | 69 | 250
12 | CC12N[C@H](CC3CCCCC31)C1CCCCC12 (stereo not given in full) | 35 | 800
13 | OCCC12N[C@](O)(Cc3ccccc31)C1CCCCC12 (stereo not given in full) | 396 | 770
14 | CC12N[C@H](Cc3ccccc31)C1=C2CC=CC1 | 20 | 
15 | CC12N[C@H](Cc3ccccc31)C1=CC=CCC12 (stereo not given in full) | 21 | 270
16 | CC12NC(Cc3ccccc31)c1ccccc12 (single isomer, unassigned) | 30.5 | 130
